# Columns and labels:
# [1] = test system: OE21, OE33 or FLO-1 cells; assay: Clonogenic survival assay with IR, three oesophageal cancer cell lines; type: cell-based, human
# Description: Clonogenic survival assay. OE21, OE33 or FLO1 cells were treated with 2 µM Ru1 for 24 h before irradiation with 0-8 Gy using a 137Cs γ-irradiator (IBL637, CIS Bio Int.; dose rate = 0.809 Gy min−1). 1 h after irradiation, cells were detached using Trypsin and re-seeded in 6 well plates at a density of 300 – 20,000 cells/well in triplicate in an incrementally greater number of cells with increasing IR dose to ensure adequate colony formation. Cells were incubated for 7–14 days after re-seeding to allow colony formation before being fixed with 10% methanol, 10% acetic acid and stained with 0.4% methylene blue. OE33 cells required an additional formaldehyde fixation (4% in PBS, 5 mins) step before the addition of methylene blue solution or colony detachment occurred. Colonies containing 50 cells or greater were counted using a Gelcount instrument and accompanying software (Oxford Optronix). Plating efficiencies were determined for each treatment condition and normalised to an untreated control to provide the surviving fraction (S. F.). S.F. versus radiation dose curves were plotted in GraphPad Prism and fit using a second order polynomial function (R2 values > 0.99). Dose modifying factors (DMF) at a SF=0.1 were calculated using the equation: Dose modifying factor (DMF) = IR dose to give S.F. 0.1/IR dose plus compound to give S.F.0.1. […]
# OE21 cells = assay: Apoptosis (AnnexinV staining, karyorrhexis, cleaved caspase 3); type: cell-based, human; details: OE21, 21 μM, 24 h
# Description: phototoxic contribution to bio-activity. Doxorubicin (Sigma) was prepared in doubly-distilled water (10 mg/mL, 17.4 mM).
# [Ru(phen)2(dppz)]2+ (2 mM) was prepared in doubly-distilled water.
# Sub-cellular fractionation. OE21 or OE33 cells were treated in 12 well plates, washed with cold PBS (2x2 mls) and nuclear and cytosol fractions obtained using the Nuclei EZ Lysis kit (Sigma). Briefly, cells were washed with acidified PBS (pH 2.5) to remove the membrane-bound fraction and 0.4 ml EZ lysis buffer was added. Cells were detached by scraping, collected into eppendorfs, vortexed briefly and left for 5 minutes on ice. Samples were centrifuged (500g, 5 mins) and the supernatant (cytosol fraction) aspirated. The pellet (nuclear fraction) was re-suspended in 200 µl RIPA buffer. […] Ruthenium content was determined by ICP-MS analysis as described in a recent […]
# DNA fibre assay. […] CldU- and IdU-labelled tracts were visualised using a Leica DMRB microscope with a DFC360FX camera and tract length measured by ImageJ software. […]
# Western blotting. […] Protein content was determined by BCA assay. […]
# AnnexinV staining. […] This was incubated for 15 mins at room temperature, 400 µl binding buffer added and analysed by flow cytometry (FL1 and FL3 channels for FITC and PI respectively). […]
# MCF7 cells = assay: Micronuclei formation, MCF7; type: cell-based; details: MCF7, 40 μM Ru1, 24 h incubation
# Description: Microscopy and immunofluorescence. Cells were seeded on ibidi 35 mm µ-dishes (Thistle Scientific), allowed to adhere for 24 h and treated as stated in the main text. Cell media was removed, cells washed with PBS and fixed with formaldehyde (4%, 10 mins). Cells were permeablised with Triton (0.5% in PBS, 5 mins) and washed with PBS. Samples were blocked with BSA (3% in PBS-T) for 1 h before incubation with primary antibody (either anti-α-tubulin or anti-γ H2AX, 1/500 dilution) in BSA (3% in PBS-T) for 1 h. Samples were washed 3x in PBS-T and incubated with Alexa Fluor-conjugated secondary antibodies (3% in PBS-T, 1 h, 1/250 dilution). After further washing (3x5 min PBS-T) samples were co-stained with DAPI (5 ng/ml, 2 min), fresh PBS added and visualised by confocal microscopy. Samples were visualised using a Zeiss LSM 780 or LSM 710 inverted confocal microscope and EC Plan-Neofluar 40x/1.30 Oil objectives. […]
# For the determination of mutation induction, from the untreated and each treated condition, 2x10^5 cells were plated in 10 x 100 mm dishes in selective media (regular media
substance,measurement,setting,value
[Ru(phen)2(tpphz)]^2+ [Ru1],"surviving fraction (S.F.), single-agent","[1]; 2 μM, 24 h, no IR, all three cell lines",> 0.87
same,dose modification factor (DMF) at surviving fraction of 0.1,"[1]; Ru1 2 μM or sub-cytotoxic cisplatin (500 nM OE21 and OE33, 300 nM FLO-1), 24 h before IR, range over three cell lines",1.19–1.31
same,apoptosis,OE21 cells,low levels of apoptosis
same,"Cells with micronuclei, Percentage",MCF7 cells,6.2%
